Tests used:
HUMAN PROSTATE LNCaP = assay: Early stage human prostate LNCaP xenograft (Table VII); type: in vivo; details: total dose 840 mg/kg: 140 mg/kg/injection IV on days 3, 5, 7, 9, 10, and 11, Balb/C SCID female mice
From the text: (§1) Conventional Murine Tumor and Human Tumor Xenouraft Assays
Inhibition of tumors transplanted into mice is an accepted procedure for studying the efficacy of antitumor agents (Corbett, et al., In vivo Methods for Screening and Preclinical Testing; Use of rodent solid tumors for drug discovery., In: Anticancer Drug Development Guide: Preclinical Screening, Clinical Trials, and Approval, B. Teicher (ed), Humana Press Inc., Totowa, N.J., Chapter 5, pages 75–99 (1997); (Corbett, et al., Int., J. Parmacog., 33, Supplement, 102–122 (1995)). Murine tumors or human xenographs were implanted essentially as described by Corbett in In vivo Methods for Screening and Preclimical Testing; Use of rodent solid tumors for drug discovery. Briefly, the murine tumor or human xenograph was implanted subcutaneously using either 12-gauge trocar implants or counted number of cells. The location for the trocar insertion is midway between the axillary and inguinal region along the side of the mouse. The trocar is slipped approximately ¾ of an inch subcutaneously up toward the axilla before discharging the tumor fragment, and pinching the skin as the trocar is removed., Alternatively, human tumor cells prepared from a […] of donor tumors (5×10^6 cells) were implanted subcutaneously in a hind-leg of a male or female nude mouse (Charles River). Either a test compound in vehicle or vehicle alone was administered by intravenous bolus injection (iv), intraperitoneal injection (ip), or oral gavage (po). Each treatment group, as well as a group of untreated control animals, consisted of five animals per group in each experiment. Subcutaneous tumor response was monitored by tumor volume measurement performed twice each week over the course of the experiment (60–120 days). Body weights were taken as a general measure of toxicity. The subcutaneous tumor data were analyzed by determining the median tumor weight for each treatment group over the course of the experiment and calculating the tumor growth delay as the difference in days for the treatment versus the control tumors to reach a volume of either 500 or 1000 mm^3.
(§2) The compound of Example 110 was tested against a variety of murine and human tumors substantially as described supra. The parameters measured in each experiment are summarized in the following paragraphs. • Tumor Weight(mg)=(a×b^2)/2 where a=tumor length (mm) and b=tumor width (mm). • Tumor Growth Delay=T−C where T is the median time (days) required for the treatment group tumors to reach a predetermined size, and C is the median time (days) for the control group tumors to reach the same size. Tumor-free survivors are excluded from this calculation, and are tabulated separately (Tumor Free).
[formula] • where Tumor Growth Delay is as previously defined and Td is tumor volume doubling time (days), estimated from the best fit straight line from a log-linear growth plot of the control group of tumors in exponential growth (100–800 mg range) • % T/C mass—The treatment and control groups are measured when the control group tumors reach approximately 700 to 1200 mg in size (median group). The median tumor weight of each group is determined (including zeros). The T/C value in percent is an indication of antitumor effectiveness. A T/C≦42% is considered significant antitumor activity. A T/C<10% is considered to indicate highly significant antitumor activity. • Body Weight Loss Nadir—A body weight loss nadir (mean of group) of greater than 20% or drug deaths greater than 20% are considered to indicate an excessively toxic dosage in single course trials. • Activity Rating—the Activity Rating is derived from the Log Kill according to the following table: […]

[1] = system: MURINE SQUAMOUS LUNG LC-12; assay: Early stage murine squamous lung LC-12 (Table VI); type: in vivo; details: Balb/C female mice
From the text: as §1
Briefly, the murine tumor or human xenograph was implanted subcutaneously using either 12-gauge trocar implants or counted number of cells. The location for the trocar insertion is midway between the axillary and inguinal region along the side of the mouse. The trocar is slipped approximately ¾ of an inch subcutaneously up toward the axilla before discharging the tumor fragment, and pinching the skin as the trocar is removed., Alternatively, human tumor cells prepared from a […] of donor tumors (5×10^6 cells) were implanted subcutaneously in a hind-leg of a male or female nude mouse (Charles River). Either a test compound in vehicle or vehicle alone was administered by intravenous bolus injection (iv), intraperitoneal injection (ip), or oral gavage (po). Each treatment group, as well as a group of untreated control animals, consisted of five animals per group in each experiment. […] Body weights were taken as a general measure of toxicity. The subcutaneous tumor data were analyzed by determining the median tumor weight for each treatment group over the course of the experiment and calculating the tumor growth delay as the difference in days for the treatment versus the control tumors to reach a volume of either 500 or 1000 mm^3.
as §2, with “The” for “The compound of Example 110 was tested against a variety of murine and human tumors substantially as described supra. The”
The median tumor weight of each group is determined (including zeros). The T/C value in percent is an indication of antitumor effectiveness.

[2] = total dose 640 mg/kg: 160 mg/kg/injection IV on days 4, 6, 8, and 10
[3] = total dose 1391 mg/kg: 107 mg/kg/injection IV every second day, days 4 to 28

O=C(NS(=O)(=O)c1ccccc1)c1ccc(Cl)cc1Cl [Example 110, N-[2,4-dichlorobenzoyl]phenylsulfonamide]
% BODY WT LOSS AT NADIR (HUMAN PROSTATE LNCaP): +5.6%
% T/C MASS (HUMAN PROSTATE LNCaP): 0%
ACTIVITY RATING (HUMAN PROSTATE LNCaP): ++++ (HIGHLY ACTIVE >2.8)
DRUG DEATHS (HUMAN PROSTATE LNCaP): 0/5
TUMOR FREE AT DAY 185 (HUMAN PROSTATE LNCaP): 4/5
GROWTH DELAY (DAYS) (HUMAN PROSTATE LNCaP; one mouse): 60^b DAYS
LOG KILL (HUMAN PROSTATE LNCaP; one mouse): 7.2^b
% BODY WT LOSS AT NADIR [1, 2]: 0%
% T/C MASS [1, 2]: 14%
ACTIVITY RATING [1, 2]: ++ (1.3–1.9)
DRUG DEATHS [1, 2]: 0/4
GROWTH DELAY [1, 2]: 12.5 days
LOG KILL [1, 2]: 1.7
TUMOR FREE AT DAY 174 [1, 2]: 0/4
% BODY WT LOSS AT NADIR [1, 3]: +1.6%
% T/C MASS [1, 3]: 20%
ACTIVITY RATING [1, 3]: +++ (2.0–2.8)
DRUG DEATHS [1, 3]: 0/5
GROWTH DELAY [1, 3]: 15.5 days
LOG KILL [1, 3]: 2.1
TUMOR FREE AT DAY 174 [1, 3]: 0/5
